Source: patent publication US20230346772A1, “COMBINATION TREATMENTS FOR WALDENSTROM'S MACROGLOBULINEMIA” (X4 Pharmaceuticals, Inc., priority 2019, published 2023)
Like-named read-outs stand apart in the source and are kept apart here.

Columns and labels:
Solubility of X4P-001 = assay type: physicochemical
[1] = Terminal half-life of X4P-001; settings: in vivo
[2] = Phase 1/2 study in renal cell carcinoma, dose-limiting toxicities; assay type: in vivo, human
Method: Doses of mavorixafor up to 600 mg daily have been tested in other clinical trials. During a Phase 1/2 study in renal cell carcinoma, a 3-patient cohort received monotherapy with 600 mg mavorixafor with 2 DLTs reported. On review, one of these (hyperglycemia) occurred in a patient with undiagnosed diabetes mellitus and the other (acute kidney injury [AKI]) occurred in a patient with pre-existing renal dysfunction and other complicating factors. Six patients received the 600 mg mavorixafor dose together with axitinib. […] Patients with a high hemoglobin A1c (HbA1c) level or with renal dysfunction are excluded from this study for safety reasons.

neutrophil = experiment: Pharmacodynamic response of neutrophil changes (ANC); set-up: species or system human; settings: in vivo
Source text: This characteristic of mavorixafor, allows for intrapatient patient dose escalation and since the steady-state ANC response is achieved rapidly as doses are escalated, the 28-day treatment duration cycle is intended to ensure that steady-state changes in ANC counts are achieved at each dose level, thereby avoiding any potential carry-over effects of previous doses. In addition, any DLT events are attributed to the current dose regardless of duration, making it unlikely that an unsafe dose is selected based on the algorithm.

CXCR4 = CXCR4 (Homo sapiens, UniProt P61073)
Method: Dose selection for the planned Phase 1b study is based on available safety data and PD of CXCR4 inhibition. […] An intrapatient dose escalation scheme is used in this study: patients will have a dose escalation in 200-mg increments to a maximum dose of 600 mg QD with the objective of achieving maximum white blood cell (WBC) mobilization.

[3] = test system: Waldenstrom's Macroglobulinemia; settings: previously treated WM patients, cited from earlier work
[4] = test system: Waldenstrom's Macroglobulinemia; settings: treatment-naive WM patients, cited from earlier work
[5] = test system: Waldenstrom's Macroglobulinemia; settings: cited from earlier work
[6] = Food effect on absorption
WBC count = settings: similar across neutrophils, monocytes, lymphocytes including B cells; cited from earlier work
CD19 B cells = settings: patients with WHIM who had mutations in CXCR4; cited from earlier work

Chain of CXCR4 (P61073 whole entry): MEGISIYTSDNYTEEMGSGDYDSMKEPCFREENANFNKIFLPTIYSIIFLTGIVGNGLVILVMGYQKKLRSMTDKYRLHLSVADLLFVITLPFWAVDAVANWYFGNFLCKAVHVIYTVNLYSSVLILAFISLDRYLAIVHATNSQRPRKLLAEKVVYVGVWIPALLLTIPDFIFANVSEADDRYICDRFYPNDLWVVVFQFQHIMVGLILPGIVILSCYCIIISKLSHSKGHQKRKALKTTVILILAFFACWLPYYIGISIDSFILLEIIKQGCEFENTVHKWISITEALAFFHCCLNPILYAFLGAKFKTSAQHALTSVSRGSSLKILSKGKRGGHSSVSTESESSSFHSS

## NCCCCN(Cc1nc2ccccc2[nH]1)[C@H]1CCCc2cccnc21 [X4P-001]
Solubility of X4P-001; aqueous buffer, pH range 3.0 to 8.0, read-out: Solubility
  solubility: > 100 mg/mL
Solubility of X4P-001; in water
  solubility: only slightly soluble
[1]
  half-life: 720 to 1440 min
[2]; 600 mg monotherapy, 3-patient cohort
  DLTs reported: 2
[2]; 600 mg together with axitinib, six patients
  patients reporting DLTs: Two of these patients reported DLTs
neutrophil
  pharmacodynamic response of neutrophil changes: rapid, occurring within hours to days
CXCR4; 200 mg starting dose, prior clinical trials
  pharmacological activity of the dose: pharmacologically active
CXCR4; human, in vivo
  tolerability of the dose: well-tolerated

## C=CC(=O)N1CCC[C@@H](n2nc(-c3ccc(Oc4ccccc4)cc3)c3c(N)ncnc32)C1 [ibrutinib, 1-[(3R)-3-[4-amino-3-(4-phenoxyphenyl)-1Hpyrazolo[3,4-d]pyrimidin-1-yl]-1-piperidinyl]-2-propen-1-one]
[3]; All Patients
  MR (major response): 78%
  VGPR (very good partial response): 29%
[3]; MYD88^L265P CXCR4^WHIM
  MR (major response): 67%
  VGPR (very good partial response): 10%
[3]; MYD88^L265P CXCR4^WT
  MR (major response): 97%
  VGPR (very good partial response): 44%
[4]; All Patients
  MR (major response): 83%
  VGPR (very good partial response): 20%
[4]; MYD88^L265P CXCR4^WHIM
  MR (major response): 71%
  VGPR (very good partial response): 7%
[4]; MYD88^L265P CXCR4^WT
  MR (major response): 94%
  VGPR (very good partial response): 31%
[5]; patients with the MYD88^L265P CXCR4^WT mutations
  VGPR: 44.4%
[5]; patients with the double mutations MYD88^L265P CXCR4^WHIM
  VGPR: 9.5%
[6]
  absorption when taken with food: increased

## c1cc(CN2CCCNCCNCCCNCC2)ccc1CN1CCCNCCNCCCNCC1 [plerixafor]
WBC count
  maximum fold-increase in WBCs over baseline: 3 fold
CD19 B cells
  fold increase in CD19 B cells: greater than 40 fold
